Measured values reported in patent US7181884B2, “Materials and methods for controlling pests” (University of Florida Research Foundation, Inc., priority 2001, dated 2007).
Read-outs that look alike come from different tables or passages of the source.

Experiments:
Manduca sexta larvae [1] = conditions: 10% wt./wt. of dry diet components
Procedure: The effect of feeding L-methionine to Manduca sexta larvae as they progressed from the first through fifth instar stages was determined. Colonies of hornworms are commonly reared for research by well-accepted techniques that account for environmental conditions such as feed availability, daily photoperiod, temperature, etc. The caterpillars were obtained from Carolina Biological Supply Co. and were placed in a lighted 27° C. incubator and fed hydrated reconstituted Dry Tobacco Hornworm Medium Stock No. L-908D (Carolina Biological Supply Co., Burlington, N.C.) supplemented with or without (control) L-methionine supplementation.
The effect of feeding L-methionine to Manduca sexta larvae as they progressed from the first through fifth instar stages was studied. In one study, the caterpillars were placed in a 27° C. incubator (photoperiod 16 hours light, 8 hours dark; relative humidity 60%) and fed a hydrated standard defined hornworm diet without (control) or with L-methionine supplementation (10% wt./wt. of dry components).

[2] = tested on: Manduca sexta neonate larvae; conditions: all test doses, sprayed excised eggplant leaves, water vehicle
Source text: (§1) Another study evaluated the Manduca larvae mortality on excised leaves of host plant (eggplant; Solanum melongena) that were sprayed with various concentrations of L-methionine dissolved in deionized water. Manduca sexta neonate larvae were initially reared on eggplants in Plexiglas cylinders. Larvae (total N=64/treatment) were exposed to eggplant leaves that were sprayed (then dried) with aqueous solutions of methionine.

[3] = tested on: eggplant; Solanum melongena; conditions: in vivo
Source text: as §1

Manduca sexta larvae [4] = conditions: Silwet-L77
Procedure: In one study, leaves of eggplant (Solanum melongena) were sprayed with a deionized water/Silwet-L77 solution containing varying concentrations of methionine, then allowed to dry. The Silwet-L77 was prepared according to the manufacture's instructions. Manduca sexta larvae (N=400; 80 per methionine dose) were then exposed to the eggplant leaves during 10 days, and surviving larvae were counted daily.

[5] = tested on: Leptinotarsa decemlineata larvae; conditions: whole eggplants sprayed, water vehicle
Source text: Host growing whole eggplants in environmental growth chanmbers were sprayed with deionized water containing varying concentrations of methionine, then dried. Leptinotarsa decemlineata larvae (N=160 per group) were exposed to the leaves, and surviving larvae were counted daily.

[6] = tested on: Colorado potato beetle, Leptinotarsa decemlineata; conditions: field
Procedure: Eggplant (Solanum melongena) growing in an outside test field were treated with various concentrations of aqueous L-methionine solutions applied to the leaves, which were allowed to dry. Then larvae of Colorado potato beetle, Leptinotarsa decemlineata, were applied to the plants, and surviving larvae were counted daily.

[7] = tested on: eggplant (Solanum melongena); conditions: in vivo
Source text: Host eggplant (Solanum melongena) growing in fields were sprayed with deionized water containing varying concentrations of methionine, then dried.

Aedes aegypti larvae = tested on: Aedes aegypti larvae
Source text: Another experiment assessed the specificity of L-methionine compared to L-proline on Aedes aegypti survival. Mosquito larvae (third or fourth instar; N=240) were placed in water containing various concentrations of L-proline or L-methionine, and fed ad libitum with commercial dried fish food applied to the water.

CAATCH1 = CAATCH1 expressed in cell membranes; cited from earlier work

Structure (SMILES) | larval development (Manduca sexta larvae [1]) | larvae killed (Manduca sexta larvae [1]; within 3 days) [%] | larvae dead [2] [%] | plant viability [3] | time to reach complete mortality (Manduca sexta larvae [4]; leaves treated with 0.31% methionine) [days] | time to reach complete mortality (Manduca sexta larvae [4]; leaves treated with 0.45% (w/w) methionine) [days] | methionine concentration at which complete mortality was attained [5] [%] | efficacy of lowest concentration attempted ([6]; 0.06% (w/w on leaves)) | larvae mortality versus concentration ([6]; various concentrations) | fruit yield mean numbers or mean weights [7] | larvae killed (Aedes aegypti larvae; 0.7% methionine in water, day 3) [%] | LD50 (Aedes aegypti larvae; day 2) [% methionine] | LD50 (Aedes aegypti larvae; day 3) [% methionine] | CAATCH1-associated voltage-dependent amino acid-elicited steady state inward cation currents (CAATCH1) | effect on larvae survival compared to 0% methionine control (Aedes aegypti larvae; all test days, P≧0.05)
CSCC[C@H](N)C(=O)O [L-methionine] | prevented all the caterpillars from advancing in development | 100 | 100 | plant viability was not affected | 4 | 2 | ≤ 0.15 | efficacious | increased in a dose-dependent manner | not significantly different from control | 100 | ~0.5 | ~0.3 | blocked | –
O=C(O)[C@@H]1CCCN1 [L-proline, reference compound] | – | – | – | – | – | – | – | – | – | – | – | – | – | – | no effect
